For data set [1], the system named is B6C3F1 female mice. Nature of the data set: VCD-induced premature ovarian failure animal model. The following applies: VCD 160 mg/kg/day i.p. five times a week, 2 weeks.
Description: B6C3F1 female mice at the age of 3 weeks (10 g to 12 g) from the same date of birth (DOB) as an experimental animal were purchased from the Central Lab Animal Inc., were adapted to a laboratory environment while sufficiently fed feed and water, and then used in an experiment. The laboratory environment was maintained at a temperature of 22±2° C. and a 12-hour day/12-hour night cycle was maintained until the experiment was completed. […]
Body weight changes were observed every week, based on the body weight measured on the start day of the experiment (day 1). […] One ovary was removed and the ovarian weight was measured and an ovarian weight index was calculated as a ratio of the measured ovarian weight with respect to the body weight immediately before sacrifice.
The test system of data set [2] is PARP and caspase-3. Description: Western blot of apoptosis proteins in CHO-K1 cells with VCD-induced ovotoxicity. The following applies: 1.5 mM VCD; compared to a control. The data set is classed as cell-based, Chinese hamster. On the procedure: As confirmed in Example 4, when CHO-K1 cells were treated with VCD, apoptosis occurred. To examine an effect of pretreatment with the Ulmi cortex extract (300 μg/ml), proteins associated with apoptosis, i.e., poly(ADP-ribosyl) polymerase (PARP) and caspase-3, were identified through western blot analysis.
As described in Example 5-1, a protein sample was collected from CHO-K1 cells pretreated with 300 μg/ml of the Ulmi cortex extract for […] and treated with 1.5 mM VCD. For this, the cells treated with VCD were washed three times with PBS, RIPA buffer was added thereto, and the resulting cells were allowed to react at 4° C. for 30 minutes and then centrifuged at 12,000 rpm for 30 minutes to collect a supernatant, and proteins were extracted therefrom. Subsequently, the same amount of the proteins were separated on a sodium dodecyl sulfate-polyacrylamide gel electrophoresis (SDS-PAGE), and then transferred to a PVDF membrane. To block non-specific binding, the membrane was treated with a blocking buffer (5% skim milk) for 1 hour, and washed with a PBST solution containing 0.1% Tween 20. Thereafter, the membrane was allowed to react with primary antibodies against PARP and caspase-3 at 4° C. overnight. […]
In general terms: Immunoblotting shows a protein as a band on a membrane.

The test system of data set [3] is CHO-K1 cells. Nature of the data set: Cell morphology observation, VCD-induced cell damage. The format is cell-based, Chinese hamster. The following applies: 1.5 mM VCD, 24 hours. On the procedure:
Through cell morphological changes, it was confirmed whether the Ulmi cortex extract protected CHO-K1 cells from cell damage induced by VCD.
First, cells were distributed into a 96-well plate at a density of 1×10^4 cells/well, and the cells were cultured until the next day, followed by serum starvation for 4 hours. Subsequently, the cells were pre-treated with 300 μg/ml of the Ulmi cortex extract for 4 hours and treated with 1.5 mM VCD, and then incubated at 37° C. under 5% CO2 for 24 hours, and the cells were observed using an optical microscope (Nikon, Japan).

With `C1CC2OC2CC1C1CO1` (centres unmarked) [VCD, 4-vinylcyclohexene diepoxide], in data set [1], the “ovarian weight index, negative control (VCD) vs normal group” value is on record as “significant decrease compared to the normal group”; the “sizes of the ovary and the uterus, negative control (VCD)” value is recorded as “significantly decreased”. In addition, in data set [2], the “proform band of PARP, treated only with VCD” value is recorded as “decreased” and the “proform band of caspase-3, treated only with VCD” value is on record as “became pale”. In data set [3], the “cell morphology, group treated only with VCD” value was “apoptosis was observed”.
